According to patent US8999408B2, “Amla extract for transdermal application” (priority 2006, dated 2015):

Key:
[1] = Radical scavenging by the DPPH (diphenylpicryl-hydrazyl) method; settings: 10 mg dose
[2] = Transdermal diffusion of Vitamin C / reductones across guinea pig abdominal skin in a diffusion cell; type: in vitro ADME; settings: for Reductones transported across the guinea pig membrane: 3 hours, 37° C., phosphate buffer pH 7; for Fraction trans-dermal percent: 10 mg applied, after 3 hours, relative to reductone equivalent present in application
Method: The diffusion studies were carried out across the guinea pig abdominal skin. […] The guinea pig abdominal skin was placed between the upper and lower chambers of the diffusion cell, thereby separating the 2 chambers. The test composition was introduced into the upper chamber. Migration of the components from the upper chamber to the lower chamber (which had liquid or buffer at body pH) through the guinea pig abdominal skin allowed comparative studies for extent of migration of the components from different test compositions.
After introducing the test material in the upper chamber, the diffusion was carried out for 3 hours.
The lower chamber of the diffusion cells were filled with 15 ml of phosphate buffer, pH 7, and the prepared guinea pig skins were fixed on each diffusion cell between the upper and lower chambers of the diffusion cell. The temperature of the diffusion cell was maintained at 37° C.
The diffusion across the skin membrane of active ingredients, that is, scorbutic reductones (that is Vitamin C actives substances including ascorbic acid) and hydrogen ions was carried out for three hours.
To an aliquot (5 ml) of supernatant of the HPO3 extract 2.5 ml of acetone was added and the resulting solution was titrated with dye 2,6-dichloro indophenol until a faint pink color persisted for 15 seconds. The concentration of Vitamin C in the sample was expressed as mg ascorbic acid equivalent to 1 ml of the dye solution.

Reductones transported across the guinea pig membrane ([2]; 10 mg applied on guinea pig membrane): 0.3 mg
Fraction trans-dermal percent [2]: 3.0%
Fraction trans-dermal percent ([2]; listed as Vitamin C): 3%
Reductones transported across the guinea pig membrane ([2]; 100 mg applied on guinea pig membrane): 8.4 mg
SMILES: O=C1O[C@H]([C@@H](O)CO)C(O)=C1O [ascorbic acid]
inhibition (DPPH radical scavenging) [1]: −4.66%
